The values below come from patent US20100212036A1, “SELECTIVE INHIBITION OF HISTONE DEACETYLASES 1 AND 2 AS A TREATMENT FOR CARDIAC HYPERTROPHY” (priority 2008, published 2010).

The subject of one experiment is PPARα-responsive genes. As to the kind of experiment: Real-time RT-PCR of PPARα target genes in hearts of wild-type and HDAC3cKO mice after Wy14,643. In kind it is in vivo. The following applies: 50 mg/kg single intraperitoneal injection. The procedure: FIGS. 5A-E. Aberrant expression of cardiac metabolism genes from cardiac deletion of HDAC3. (FIG. 5A) Microarray analysis was performed at 5 weeks and gene ontology analysis was performed with PANTHER. […] (FIG. 5B) PPAR-regulated mitochondrial uncoupling genes are increased in HDAC3cKO mice. […] (FIG. 5E) Glucose metabolism is decreased in HDAC3cKO hearts. For (FIGS. 5B-E), real-time RT-PCR was performed from LV RNA of 6-week-old wild-type and HDAC3cKO mice in absence or presence of Wy14,643. Transcript levels were normalized to 18S Ribosomal RNA. KO, HDAC3cKO. Error bars represent standard deviation.
RT-PCR and microarray. For all gene expression analyses from wild-type and HDAC3cKO mice, 4 wild-type and 4 HDAC3cKO hearts were isolated and analyzed. Total RNA was purified using TRIzol reagent according to manufacturer's instructions. For RT-PCR, total RNA was used for reverse transcriptase using random hexamer primers. Primer sequences are available upon request. Quantitative real time PCR was performed using Taqman probes purchased from ABI. For microarray, RNA was extracted from either 3 wild-type or HDAC3cKO hearts and subsequently pooled prior to analysis. Microarray analysis was performed using the Mouse Genome 430 2.0 Array (Affymetrix). All heart RNA was from ventricle tissue only. Microarray analysis was performed by the UT Southwestern Microarray Core Facility using the Mouse Genome 430 2.0 Array (Affymetrix) as described (Davis et al., 2006)
Animal studies. For fasting studies, male HDAC3cKO and wild-type littermates were fasted for 24 hrs. After 24 hrs, mice were sacrificed, hearts extracted, and prepared for Oil Red O staining. Control mice were allowed standard chow ad libitum. Wy14,643 (Biomol) (50 mg/kg body weight) in 50% DMSO/saline was administered as a single intraperitoneal injection. Control littermates were administered vehicle and hearts were extracted 8 hrs after injection. All animal studies were approved by the IACUC of the University of Texas Southwestern Medical Center.
A general note: Real-time PCR tracks product formation cycle by cycle.

Another experiment relates to cardiomyocytes. As to conditions: treatment of cardiomyocytes with HDAC inhibitors; cited from earlier work.
The test system of a further experiment is HDAC3. As to the kind of experiment: HDAC3 expression in settings of hypertrophy and failure. It is filed as in vivo. As to conditions: following infusion; data not shown.
Where [1] appears, read: hearts 8 hrs after injection, vs baseline.
The mark [2] stands for this setting: HDAC3cKO mice, LV RNA, hearts extracted 8 hrs after injection, vs baseline.

As for `Cc1cccc(Nc2cc(Cl)nc(SCC(=O)O)n2)c1C` [Wy14,643], in the experiment on PPARα-responsive genes (setting [1]), the CD36 transcript level entry is given as “up-regulated”, the “FACS (Acsl1) transcript level” value was “up-regulated” and the “FATP (Slc27a1) transcript level” value is “up-regulated”. The “ACOX (acyl-CoA oxidase 1) expression” value with PPARα-responsive genes (HDAC3cKO hearts) was “further up-regulated”. Further, in the experiment on PPARα-responsive genes (HDAC3cKO mice), the GLUT4 expression entry is “further decreased” and the PDK4 expression result is reported as “further elevated”. In the experiment on PPARα-responsive genes (setting [2]), the UCP2 transcript level entry was “induction was increased” and the UCP3 transcript level entry is “induction was increased”. Further, in the experiment on PPARα-responsive genes (wild-type or HDAC3cKO hearts), the mCPT-1 transcript levels entry is recorded as “had no effect”.
`CC(/C=C/C(=O)NO)=C\[C@@H](C)C(=O)c1ccc(N(C)C)cc1` [TSA]: in the experiment with cardiomyocytes, the “activation of the fetal gene program” value is recorded as “dose-dependentle block activation” and the hypertrophic response result is “block the hypertrophic response”.
As for angiotensin, the HDAC3 expression levels result with HDAC3 is listed as “not significantly altered”.
As to `CC(C)NCC(O)c1ccc(O)c(O)c1` (stereo not drawn) [isoproterenol], in the experiment with HDAC3, the HDAC3 expression levels entry is reported as “decreased”.
As for `CCCC(CCC)C(=O)O` [VPA], in the experiment on cardiomyocytes, the “activation of the fetal gene program” value was “dose-dependentle block activation” and the hypertrophic response result is “block the hypertrophic response”.
